According to patent US11420944B2, “Voltage-dependent t-type calcium channel blocker” (Nippon Chemiphar Co., Ltd., priority 2016, dated 2022):
Read-outs that look alike come from different tables or passages of the source.

Biological target: T1, human Cav3.2 channels (Homo sapiens, UniProt O95180)
T1 construct: expressed in transfected cells; host or cells: HEK293 cells (ATCC No. CRL-1573), plasmid pcDNA3.1(+)
Assay: Intracellular calcium concentration measurement (Fluo-4 AM) in stable cells expressing human Cav3.2 channels, buffer A / buffer B
Format: cell-based
Description: Construction of Stable Cells Expressing Human Cav3.2 Channels
(1) A sequence produced by incorporating HindIII site and kozak sequence (GCCACC) into the 5′-terminal side of human Cav3.2 channel ORF (Open Reading Frame) gene and incorporating Kpnl site into the 3′-terminal side was incorporated into pcDNA3.1(+) (Thermo-Fisher Scientific, Inc., #V790-20), and the plasmid was transfected into HEK293 cells (ATCC No. CRL-1573) according to the protocol of FuGENE (registered trademark) HD Transfection Reagent (PROMEGA #E2311).
(2) Method for Measuring Intracellular Calcium Concentration
In the present measurement system, buffer A and buffer B having different potassium ion concentrations were used in order to evaluate the state-dependent Cav3.2 inhibitory action of a test compound.
Stable cell line expressing human Cav3.2 channels, which had been produced in (1), was seeded in a 96-well plate using DMEM medium including 10% FBS, and the cells were cultured for 48 hours under the conditions of 37° C. and 5% CO2. Subsequently, the medium was removed, and various wells that had been washed with a base buffer were treated with 80 μL of a fluorescent dye solution containing a mixed liquid of 22 μg of calcium fluorescence indicator Fluo-4 AM (Dojindo Laboratories Co., Ltd., #F311), 20 μL of DMSO, […] of 10% Pluronic F-127 (Thermo-Fisher Scientific, Inc., #P6866), and 4 mL of a base buffer. The cells were left to stand for 45 minutes at room temperature in the dark, and then the cells were washed with buffer A or buffer B. Solutions having various test compound concentrations and respectively containing buffer A or buffer B were added to the respective wells, the respective solutions containing DMSO at the same final concentration as that of the test compound as negative control, or containing the test compound dissolved in 100% DMSO at a final concentration of 0.1%. The cells were left to stand for another 15 minutes at room temperature in the dark, and the cells were analyzed using the following method using a microplate reader, EnVision (PerkinElmer, Inc.). First, the background fluorescence for each well was measured, subsequently an ionophore was added to the well, and the fluorescence of the baseline was measured. Subsequently, buffer A or buffer B containing added KCl at a concentration of 83.8 mM or 91.8 mM was added to each well, and an increase in fluorescence caused by a calcium influx generated by that stimulus was measured for 10 seconds. The percentage inhibition was calculated from the maximum fluorescence increment from the baseline, and the logarithmic value of the test compound concentration and the inhibitory activity were plotted to calculate the IC50 value. The analysis was carried out by measuring the fluorescence at 510 nm emitted when the cells were irradiated with exciting light at 485 nm.
Base buffer: 140 mM NaCl, 5 mM KCl, 1 mM MgCl2, 0.5 mM CaCl2, 10 mM Glucose, and 10 mM HEPES, pH 7.3
Buffer A: Equilibrium potential of potassium: −92 mV

[1] = Tables 2 to 6, buffer A, equilibrium potential of potassium −92 mV, read-out: Inhibitory action of buffer A (inactivated state)
[2] = Table 1, buffer A, equilibrium potential of potassium −92 mV, read-out: Inhibitory action of buffer A (inactivated state)
[3] = Table 1, buffer B, equilibrium potential of potassium −110 mV, read-out: Inhibitory action of buffer B (resting state or closed state)

T1 sequence (O95180 whole entry): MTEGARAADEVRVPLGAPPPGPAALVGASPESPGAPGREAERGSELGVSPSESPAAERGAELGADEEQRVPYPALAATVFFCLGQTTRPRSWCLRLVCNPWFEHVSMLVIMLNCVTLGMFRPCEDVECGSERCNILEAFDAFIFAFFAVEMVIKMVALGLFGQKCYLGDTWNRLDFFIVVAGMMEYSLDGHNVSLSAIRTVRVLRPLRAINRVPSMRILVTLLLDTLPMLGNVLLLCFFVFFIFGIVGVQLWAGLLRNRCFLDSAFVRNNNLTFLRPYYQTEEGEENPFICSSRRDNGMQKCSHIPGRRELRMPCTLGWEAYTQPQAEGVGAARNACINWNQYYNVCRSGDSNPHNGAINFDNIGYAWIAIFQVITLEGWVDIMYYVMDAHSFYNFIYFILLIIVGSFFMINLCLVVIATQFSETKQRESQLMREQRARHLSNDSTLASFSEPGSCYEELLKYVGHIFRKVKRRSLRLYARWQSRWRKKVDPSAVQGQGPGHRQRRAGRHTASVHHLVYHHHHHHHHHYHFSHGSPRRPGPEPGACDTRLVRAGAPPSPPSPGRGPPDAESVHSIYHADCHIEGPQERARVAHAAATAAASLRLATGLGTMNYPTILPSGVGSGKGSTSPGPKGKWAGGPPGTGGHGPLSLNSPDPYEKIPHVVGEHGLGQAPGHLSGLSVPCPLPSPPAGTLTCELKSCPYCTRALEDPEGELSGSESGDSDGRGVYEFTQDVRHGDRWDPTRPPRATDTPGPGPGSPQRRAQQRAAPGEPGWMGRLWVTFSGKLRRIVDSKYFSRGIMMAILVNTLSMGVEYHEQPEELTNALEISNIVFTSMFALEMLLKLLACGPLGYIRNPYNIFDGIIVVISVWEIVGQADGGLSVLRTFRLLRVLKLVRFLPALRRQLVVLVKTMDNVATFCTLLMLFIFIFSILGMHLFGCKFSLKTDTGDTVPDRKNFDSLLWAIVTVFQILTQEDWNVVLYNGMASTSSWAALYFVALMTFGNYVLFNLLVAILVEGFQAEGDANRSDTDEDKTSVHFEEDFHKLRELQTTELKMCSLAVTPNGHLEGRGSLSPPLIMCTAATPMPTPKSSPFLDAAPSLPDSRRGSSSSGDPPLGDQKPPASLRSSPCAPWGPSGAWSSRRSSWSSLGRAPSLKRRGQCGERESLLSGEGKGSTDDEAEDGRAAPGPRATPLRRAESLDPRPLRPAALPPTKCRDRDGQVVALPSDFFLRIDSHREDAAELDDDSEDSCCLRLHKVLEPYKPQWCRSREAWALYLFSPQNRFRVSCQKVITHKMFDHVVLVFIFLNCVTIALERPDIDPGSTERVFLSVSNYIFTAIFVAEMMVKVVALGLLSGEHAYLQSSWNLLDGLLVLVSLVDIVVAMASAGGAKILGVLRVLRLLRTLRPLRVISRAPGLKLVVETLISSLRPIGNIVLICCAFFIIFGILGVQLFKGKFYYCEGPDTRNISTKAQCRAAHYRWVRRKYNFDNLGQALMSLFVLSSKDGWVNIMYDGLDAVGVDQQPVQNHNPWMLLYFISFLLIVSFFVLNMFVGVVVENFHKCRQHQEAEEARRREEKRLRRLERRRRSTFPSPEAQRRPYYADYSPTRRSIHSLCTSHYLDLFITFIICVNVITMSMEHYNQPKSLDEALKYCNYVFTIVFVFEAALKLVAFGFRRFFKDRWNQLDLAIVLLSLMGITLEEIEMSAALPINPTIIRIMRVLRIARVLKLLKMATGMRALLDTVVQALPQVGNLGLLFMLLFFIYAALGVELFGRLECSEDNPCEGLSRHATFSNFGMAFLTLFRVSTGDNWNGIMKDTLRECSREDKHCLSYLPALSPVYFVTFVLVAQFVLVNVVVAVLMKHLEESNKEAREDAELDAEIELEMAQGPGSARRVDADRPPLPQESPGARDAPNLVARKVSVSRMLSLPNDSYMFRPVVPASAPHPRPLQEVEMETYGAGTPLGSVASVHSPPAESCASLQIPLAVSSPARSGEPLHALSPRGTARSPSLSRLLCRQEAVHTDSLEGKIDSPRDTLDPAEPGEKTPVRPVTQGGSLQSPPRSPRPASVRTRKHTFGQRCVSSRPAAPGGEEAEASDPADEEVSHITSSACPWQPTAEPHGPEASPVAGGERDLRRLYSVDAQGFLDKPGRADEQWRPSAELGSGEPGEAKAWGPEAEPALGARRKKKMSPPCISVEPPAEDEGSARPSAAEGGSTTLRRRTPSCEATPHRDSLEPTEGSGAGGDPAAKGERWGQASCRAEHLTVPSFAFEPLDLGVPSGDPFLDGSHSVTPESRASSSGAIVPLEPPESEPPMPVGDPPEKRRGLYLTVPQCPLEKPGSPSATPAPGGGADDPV

For C[C@@H](NC(=O)C1CC1c1nc2cnccc2[nH]1)c1ccc(OCC(F)(F)F)s1 (mixture of isomers) [Example 28, Trans-2-(1H-imidazo[4,5-c]pyridin-2-yl)-N—((R)-1-(5-(2,2,2-trifluoroethoxy)thiophen-2-yl)ethyl)cyclopropane-1-carboxamide], which IC50 [1] is on record?
The IC50 was over 10 µM.

What does the source list for Cc1cc([C@@H](C)NC(=O)C2CC2c2nc3ccccc3[nH]2)sc1OCC(F)(F)F (single isomer, unassigned) [Example 1A]?
IC50 [2]: 0.1 to 1 µM; IC50 [3]: > 10 µM

Which IC50 [2] does the source give for Cc1cc([C@@H](C)NC(=O)C2CC2c2nc3ccccc3[nH]2)sc1OCC(F)(F)F (single isomer, unassigned) [Example 1B] here?
The IC50 was 1 to 10 µM.

Which results are given for C[C@H](NC(=O)C1CC1c1nc2ccccc2[nH]1)c1ccc(OCC(F)(F)F)s1 (single isomer, unassigned) [Example 2A]?
IC50 [2]: 1 to 10 µM; IC50 [3]: > 10 µM

Which results are given for C[C@H](NC(=O)C1CC1c1nc2ccccc2[nH]1)c1ccc(OCC(F)(F)F)s1 (single isomer, unassigned) [Example 2B]?
IC50 [2]: 1 to 10 µM; IC50 [3]: > 10 µM

For C[C@@H](NC(=O)C1CC1c1nc2ccccc2[nH]1)c1ccc(OCC(F)(F)F)s1 (single isomer, unassigned) [Example 3B], which IC50 [2] is on record?
The IC50 was 1 to 10 µM.

And the IC50 [3]?
The IC50 was 1 to 10 µM.

C[C@@H](NC(=O)C1CC1c1nc2ccccc2n1C)c1ccc(OCC(F)(F)F)s1 (single isomer, unassigned) [Example 4B] was tested. Which IC50 [2] did it give?
The IC50 was 1 to 10 µM.

What about the IC50 [3] of the same molecule?
The IC50 was over 10 µM.

For C[C@@H](NC(=O)C1CC1c1nc2ccccc2[nH]1)c1ccc(C(F)(F)F)s1 (single isomer, unassigned) [Example 5B], which IC50 [2] is on record?
The IC50 was 1 to 10 µM.

And the IC50 [3]?
Its IC50 is 1 to 10 µM.

Which results are given for C[C@@H](NC(=O)C1CC1c1nc2ccccc2[nH]1)c1ccc(Br)s1 (single isomer, unassigned) [Example 6A]?
IC50 [2]: 0.1 to 1 µM; IC50 [3]: 1 to 10 µM

What does the source list for C[C@@H](NC(=O)C1CC1c1nc2ccccc2[nH]1)c1ccc(Br)s1 (single isomer, unassigned) [Example 6B]?
IC50 [2]: 1 to 10 µM; IC50 [3]: > 10 µM

With C[C@H](NC(=O)C1CC1c1nc2ccccc2[nH]1)c1cnc(OCC(F)(F)F)s1 (single isomer, unassigned) [Example 7A] as the molecule, how does the IC50 [2] read?
The IC50 was 1 to 10 µM.

What about the IC50 [3] of the same molecule?
Its IC50 is over 10 µM.

For C[C@H](NC(=O)C1CC1c1nc2ccccc2[nH]1)c1cnc(OCC(F)(F)F)s1 (single isomer, unassigned) [Example 7B], which IC50 [2] is on record?
Its IC50 is 1 to 10 µM.

What about the IC50 [3] of the same molecule?
The IC50 was over 10 µM.

How did the IC50 [2] turn out when C[C@@H](NC(=O)C1CC1c1nc2ccccc2[nH]1)c1cnc(OCC(F)(F)F)s1 (single isomer, unassigned) [Example 8B] was run?
Its IC50 is over 10 µM.

What does the source list for C[C@@H](NC(=O)C1CC1c1nc2ccccc2[nH]1)c1ncc(Br)s1 (single isomer, unassigned) [Example 11A]?
IC50 [2]: 1 to 10 µM; IC50 [3]: > 10 µM

For C[C@@H](NC(=O)C1CC1c1nc2ccccc2[nH]1)c1ncc(Br)s1 (single isomer, unassigned) [Example 11B], which IC50 [2] is on record?
The IC50 was over 10 µM.

With C[C@@H](NC(=O)C1CC1c1cc(F)cc(F)c1)c1ccc(OCC(F)(F)F)s1 (single isomer, unassigned) [Example 19A] as the molecule, how does the IC50 [1] read?
The IC50 was over 10 µM.

How did the IC50 [1] turn out when C[C@@H](NC(=O)C1CC1c1cc(F)cc(F)c1)c1ccc(OCC(F)(F)F)s1 (single isomer, unassigned) [Example 19B] was run?
The IC50 was over 10 µM.

For C[C@@H](NC(=O)C1CC1c1ccc2cnn(C)c2c1)c1ccc(OCC(F)(F)F)s1 (single isomer, unassigned) [Example 22B], which IC50 [1] is on record?
The IC50 was 0.1 to 1 µM.

C[C@@H](NC(=O)C1CC1c1ccccn1)c1ccc(OCC(F)(F)F)s1 (single isomer, unassigned) [Example 23A] was tested. Which IC50 [1] did it give?
The IC50 was 1 to 10 µM.

With C[C@@H](NC(=O)C1CC1c1ccccn1)c1ccc(OCC(F)(F)F)s1 (single isomer, unassigned) [Example 23B] as the molecule, how does the IC50 [1] read?
Its IC50 is over 10 µM.

How did the IC50 [1] turn out when C[C@@H](NC(=O)C1CC1c1nc2ccccc2[nH]1)c1ccc(C(=O)O)s1 (single isomer, unassigned) [Example 27] was run?
Its IC50 is over 10 µM.

C[C@@H](NC(=O)C1CC1c1cn(C)c2ccccc12)c1ccc(OCC(F)(F)F)s1 (single isomer, unassigned) [Example 29A] was tested. Which IC50 [1] did it give?
Its IC50 is over 10 µM.
